The source of these data is patent US7250401B2, “Therapeutic compositions” (Advanced Therapeutics and Diagnostics, LC, priority 2001, dated 2007).

The assay in a line: Reaction with thionitrobenzoate (detection of thiol-reactive substances, loss of absorbance at 412 nm). It counts as physicochemical. Conditions: for rate of reaction with thionitrobenzoate: aqueous solution at pH 7 and 25° C. How it is done:
A stock solution of 5-thio-2-nitrobenzoate (hereafter referred to as thionitrobenzoate) was prepared by reduction of 5,5′-dithiobis(2-nitrobenzoic acid) (hereafter referred to as DTNB, Aldrich Chemical Company). This stock solution was prepared by mixing 0.1 ml of 0.1 M DTNB dissolved in ethanol (396 mg of DTNB in 10 ml of ethanol), 0.1 ml of 1 M aqueous potassium phosphate buffer (prepared by mixing equal volumes of 1 M monobasic potassium phosphate with 1 M dibasic potassium phosphate), and 0.025 ml of 1 M sodium borohydride dissolved in 1 M NaOH on ice. After incubating this mixture for 10 minutes at ice temperature, 0.1 mL of 1 M monobasic potassium phosphate was added and the resultant solution was diluted to a final volume of 2 ml by addition of 1.675 ml of water.
An alternate method for preparation of a stock solution of thionitrobenzoate involves the use of 2-mercaptoethanol as reductant, in place of sodium borohydride. In this method a 10 mM solution of DTNB was prepared by mixing 39.6 mg of DTNB with 17 mg of sodium bicarbonate and 4 ml of ice-cold water. After allowing the effervescence to subside, this solution was mixed with 0.01 ml of 0.5 M trisodium ethylenediaminetetracetate and 0.1 ml of 1 M potassium phosphate buffer, then diluted to a final volume of 10 ml with water. A separate stock of 10 mM 2-mercaptoethanol was prepared by dilution of neat 2-mercaptoethanol (14.3 M) with water (serial dilution of 0.01 ml of neat 2-mercaptoethanol to 1 ml to give 0.143 M and then dilution of 0.07 ml of this solution to a final volume of 1 ml to give 10 mM). The stock of 8.7 mM thionitrobenzoate was prepared by mixing 2 ml of 1 M potassium phosphate buffer with 0.2 ml of 10 mM 2-mercaptoethanol and 0.1 ml of 10 mM aqueous DTNB.
If 0.01 ml of the 10 mM stock of thionitrobenzoate, obtained by sodium borohydride reduction of DTNB, was diluted with 0.89 ml of water and 0.1 ml of 1 M phosphate buffer, it gave an absorbance at 412 nm of 1.36 in a 1 cm pathlength cuvette. If 0.01 ml of the 8.7 mM stock of thionitrobenzoate obtained by 2-mercaptoethanol reduction of DTNB was diluted with 0.89 ml of water and 0.1 ml of 1 M phosphate buffer, it gave an absorbance at 412 nm of 1.18 in a 1 cm pathlength cuvette. […] (4 M^−1 s^−1).
(<0.05 M^−1 s^−1). DECOSMe (EXAMPLE 4) reacted with thionitrobenzoate under these conditions at a rate of 4 M^−1 s^−1. DETC-MeSO2 (EXAMPLE 5) reacted with thionitrobenzoate under these conditions at a rate of 0.4 M^−1 s^−1. S-Methyl-O-(N,N-diethylcarbamoyl)sulfinate (DECO2SMe, prepared by rearrangement of DETC-MeSO2 under the conditions described in EXAMPLE 4) reacted with thionitrobenzoate under these conditions at a rate of 14 M^−1 s^−1.

As for `CCN(CC)C(=O)OS(C)=O` (stereo not drawn) [DECO2SMe, S-Methyl-O-(N,N-diethylcarbamoyl)sulfinate], the “rate of reaction with thionitrobenzoate” value is 14 M⁻¹ s⁻¹.
As for `CCN(CC)C(=O)OSC` [DECOSMe, S-Methyl-O-(N,N-Diethylcarbamoyl)Sulfenate], the “rate of reaction with thionitrobenzoate” value was found to be 4 M⁻¹ s⁻¹. Further, the “half time of first-order decay of absorbance at 412 nm” value (0.01 ml of 0.1 M aqueous solution added to thionitrobenzoate assay mixture, 25° C.) amounted to 2.9 min. Also, the “rate of reaction with thionitrobenzoate (from first-order decay of absorbance at 412 nm)” value (0.01 ml of 0.1 M aqueous solution added, 25° C.) amounted to 4 M⁻¹ s⁻¹.
Consider `CCN(CC)C(=O)S(C)(=O)=O` [DETC-MeSO2, S-Methyl-N,N-Diethylthiolcarbamate Sulfone], for which the “rate of reaction with thionitrobenzoate” value was found to be 0.4 M⁻¹ s⁻¹.
With `CCN(CC)C(=O)[S+](C)[O-]` (stereo not drawn) [DETC-MeSO, S-Methyl-N,N-Diethylthiolcarbamate Sulfoxide], the “rate of reaction with thionitrobenzoate, prior to rearrangement to DECOSMe” value (0.01 ml of 5 mM aqueous solution, freshly synthesized, anaerobic conditions, up to 24 hours) was “less than 0.01 M^−1 s^−1”.
